{"source": "patent US20040116523A1", "about": "“Use of c4-c10 acids for preventing gram-negative bacterial infections” (priority 2000, published 2004)", "key": {"Shigella sonnei": {"system": "Shigella sonnei", "conditions": "1.25 g/l; cited from earlier work"}, "[1]": {"system": "Gram-positive or Gram-negative bacteria", "conditions": "7.8 mM, in vitro; cited from earlier work"}, "[2]": {"system": "sipB′-lacZ fusion (S. typhi strain Ty277)", "experiment": "β-galactosidase activity of the sipB′-lacZ fusion in favourable LB medium", "type": "cell-based", "protocol": "(§1) The favourable LB medium (high osmolarity and concentration of Ca^2+ions) was defined as being the standard LB medium modified so as to have a final NaCl concentration of 300 mM and a final Ca concentration of 5 mM.\n(§2) Each of the strains described above was cultured at 37° C. on agar or in TCS broth. The P-galactosidase activity was determined using 4-methyl-umbelliferyl-p-D-galactopyranoside sold by the company Sigma, according to the technique of Klarsfeld et al. (Mol. Mibrobiol., 1994, 13, 585-597). The results, expressed in P-galactosidase units (fluorescence per hour and per OD600), represent the mean of the values obtained in at least three independent experiments. The standard deviations were less than 10% of the values presented.\n(§3) For this, the S. typhi strains Ty267, Ty272 and Ty277, which carry the iagA′-lacZ, invF′-lacZ and sipB′-lacZ fusions, respectively, (see Table I), were cultured in the favourable LB or unfavourable LB medium.\n(§4) The action of these two compounds on the expression of the iagA′-lacZ, invF′-lacZ and sipB′-lacZ fusions was studied by measuring the β-galactosidase activity expressed by these fusions as a function of the time of culturing (samples removed every two hours)."}, "Salmonellae": {"system": "Salmonellae", "experiment": "Bactericidal or bacteriostatic effect on the Salmonellae at neutral pH", "type": "cell-based, Salmonella"}, "S. enteritidis LA5": {"system": "S. enteritidis LA5", "experiment": "Splenic colonization of C57Bl/6 mice infected orally with S. enteritidis LA5", "type": "in vivo", "conditions": "50 mM in drinking water pH 7.2-7.3; 10^7 bacteria per animal orally; distilled water 7.5 ± 0.3", "protocol": "(§5) They were infected orally in the following way. The Salmonella strains were cultured in TCS broth for 18 hours at 37° C. with shaking (200 rpm). This culture was then adjusted to […] (in the stationary growth phase, 1 OD600 =1.5 ×10^9 bacteria/ml), and then the number of viable bacteria was controlled by counting on TCS agar.\n(§6) On the day of infection (DO), the drinking-water bottles of the mice were replaced with bottles containing 100 ml of drinking water to which the required number of bacteria had been added.\n(§7) After infection for 24 hours ([…]), the bottles containing the contaminated drinking water were replaced with bottles containing uncontaminated drinking water.\n(§8) Seven days after infection (D+7), the spleens of the mice infected in this way were removed and homogenized separately in 1 ml of physiological saline containing 0.7% of NaCl.\n(§9) The number of viable bacteria per spleen was determined by plating out dilutions of the homogenate, onto TCS agar.\n(§10) The S. dublin strain 5917 (Coynault & Norel, Microb. Pathog., 1999, 26, 299-305) and S. enteritidis strain LAS (Thorns et al., Microb. Pathog., 1996, 20, 235-246) were used to infect C57B1/6 mice orally at the dose of 10^7 bacteria per animal."}, "S. typhi strain Ty2": {"system": "S. typhi strain Ty2", "experiment": "Mobility by the U-tube culturing technique", "type": "cell-based", "conditions": "U tube supplemented with 5 mM", "protocol": "The mobility of each strain was studied using the U-tube culturing technique (Popoff and Le Minor, Guide pour la preparation des serum anti-Salmonella (Guide for preparing salmonella antisera], 1997). When necessary, the culture media were supplemented with chloramphenicol (Cm) at 15 μg/ml."}, "[3]": {"system": "iagA′-lacZ fusion (S. typhi strain Ty267)", "experiment": "β-galactosidase activity of the iagA′-lacZ fusion in favourable LB medium", "type": "cell-based", "conditions": "fatty acid as sodium salt, 5 mM in favourable LB medium, 6 hours at 37° C.; control 22022 ± 1177", "protocol": "as §1\nas §2, with “presented. […]” for “presented.”\nThe β-galactosidase activity of the iagA′-lacZ fusion was measured after incubation for 6 hours at 37° C. with shaking (200 rpm).\nThe S. typhi Ty267 strain (iagA′-lacZ fusion) was seeded into favourable LB medium and into favourable LB medium containing the fatty acid to be tested, in the form of its sodium salt, at the final concentration of 5 mM."}, "[4]": {"system": "invF′-lacZ fusion (S. typhi strain Ty272)", "experiment": "β-galactosidase activity of the invF′-lacZ fusion in favourable LB medium", "type": "cell-based", "protocol": "as §1, §2, §3, §4"}, "S. typhimurium C52": {"system": "S. typhimurium C52", "experiment": "Splenic colonization of C57Bl/6 mice infected orally with S. typhimurium C52", "type": "in vivo", "protocol": "The 5-6-week-old female C57Bl/6 mice used in the context of this experiment originated from the IFFA-CREDO breeding centre (LArbresle, France).\nas §5, §6, §7, §8, §9\nThe effect of the composition of the drinking water on the splenic colonization by Salmonella was estimated using the Student's t test.\nThe S. typhimurium strain C52 was used to infect C57Bl/6 mice orally.\nOn this figure, the number of viable bacteria is given as the mean (log10) of the values ± the standard deviation. […]"}, "S. typhi": {"system": "S. typhi", "conditions": "1.25 g/l; cited from earlier work"}, "[5]": {"system": "Gram-positive or Gram-negative microorganisms", "conditions": "acid pH (free acid form); cited from earlier work"}, "[6]": {"system": "tviB′-lacZ fusion (S. typhi strain Ty266)", "experiment": "β-galactosidase activity of the tviB′-lacZ fusion (specificity control)", "type": "cell-based", "conditions": "5 mM in favourable LB medium", "protocol": "as §2\nThe tviB gene has been characterized in S. typhi, and it encodes a GDP-dehydrogenase involved in the biosynthesis of the Vi antigen, which is the capsular polysaccharide of the typhus bacillus (Waxin et al., Res. Microbiol., 1993, 144, 363-371).\nThe results are reported on FIG. 4, in which it is seen that samples were taken every two hours in order to measure the OD600 (corresponding to the open symbols) and in order to determine the β-galactosidase activity (corresponding to the solid symbols)."}, "S. dublin 5917": {"system": "S. dublin 5917", "experiment": "Splenic colonization of C57Bl/6 mice infected orally with S. dublin 5917", "type": "in vivo", "conditions": "50 mM in drinking water pH 7.2-7.3; 10^7 bacteria per animal orally; distilled water 7.7 ± 0.4", "protocol": "as §5, §6, §7, §8, §9, §10"}, "[7]": {"system": "iagA′-lacZ fusion (S. typhi strain Ty267)", "experiment": "β-galactosidase activity of the iagA′-lacZ fusion in favourable LB medium", "type": "cell-based"}, "[8]": {"conditions": "concentration greater than or equal to 2.5 mM, favourable LB medium"}}}
{"smiles": "CCCCCCCC(=O)[O-].[Na+]", "note": "[sodium caprylate]", "values": [{"measurement": "bactericidal activity in vitro on Shigella sonnei", "setting": "Shigella sonnei", "value": "no bactericidal activity"}, {"measurement": "bacteriostatic or bactericidal effect on Gram-positive or Gram-negative bacteria", "setting": "[1]", "value": "no bacteriostatic or bactericidal effect"}, {"measurement": "β-galactosidase activity expressed by the sipB′-lacZ fusion as % of that in favourable LB medium without the substance", "setting": "[2]; 1 mM in favourable LB medium", "value": "~20", "unit": "%"}, {"measurement": "expression of the sipB gene (sipB′-lacZ fusion)", "setting": "[2]; [8]", "value": "very strongly represses"}, {"measurement": "bactericidal or bacteriostatic effect on the Salmonellae", "setting": "Salmonellae", "value": "none of these compounds has any significant bactericidal or bacteriostatic effect"}, {"measurement": "Number of viable bacteria in the spleen (mean in log10)", "setting": "S. enteritidis LA5", "value": "3.7 ± 0.4", "unit": "log10"}, {"measurement": "mobility of the Ty2 strain", "setting": "S. typhi strain Ty2", "value": "same mobility"}, {"measurement": "β-Galactosidase activity of the iagA′-lacZ fusion (Table VII)", "setting": "[3]", "value": "445 ± 69 β-galactosidase units"}, {"measurement": "β-galactosidase activity expressed by the invF′-lacZ fusion as % of that in favourable LB medium without the substance", "setting": "[4]; 1 mM in favourable LB medium", "value": "~20", "unit": "%"}, {"measurement": "expression of the invF gene (invF′-lacZ fusion)", "setting": "[4]; [8]", "value": "very strongly represses"}, {"measurement": "Number of viable bacteria in the spleen (mean log10)", "setting": "S. typhimurium C52; 5 mM in drinking water, infectious dose 5 × 10^7 bacteria", "value": "6.9 ± 0.5", "unit": "log10"}, {"measurement": "Number of viable bacteria in the spleen (mean log10)", "setting": "S. typhimurium C52; 5 mM in drinking water, infectious dose 10^7 bacteria", "value": "6.8 ± 0.2", "unit": "log10"}, {"measurement": "Number of viable bacteria in the spleen (mean log10)", "setting": "S. typhimurium C52; 10 mM in drinking water, infectious dose 5 × 10^7 bacteria", "value": "6.5 ± 0.4", "unit": "log10"}, {"measurement": "Number of viable bacteria in the spleen (mean log10)", "setting": "S. typhimurium C52; 10 mM in drinking water, infectious dose 10^7 bacteria", "value": "6.5 ± 1.4", "unit": "log10"}, {"measurement": "factor of decrease of the bacterial load in the spleen", "setting": "S. typhimurium C52; 50 mM in drinking water from two days before infection, 5 × 10^7 bacteria, seventh day of infection", "value": "approximately 1 000"}, {"measurement": "Number of viable bacteria in the spleen (mean log10)", "setting": "S. typhimurium C52; 50 mM in drinking water, infectious dose 10^7 bacteria, distilled water 7.2 ± 0.3", "value": "2.3 ± 0.4", "unit": "log10"}, {"measurement": "protective effect (in words)", "setting": "S. typhimurium C52; 5 or 10 mM in the drinking water, whatever the infectious dose", "value": "no longer has a significant protective effect"}, {"measurement": "bactericidal activity in vitro on S. typhi", "setting": "S. typhi", "value": "no bactericidal activity"}, {"measurement": "bactericidal activity on a great variety of Gram-positive or Gram-negative microorganisms", "setting": "[5]", "value": "bactericidal activity"}, {"measurement": "effect on the expression of the tviB′-lacZ fusion", "setting": "[6]", "value": "no significant effect"}, {"measurement": "Number of viable bacteria in the spleen (mean in log10)", "setting": "S. dublin 5917", "value": "2.1 ± 0.2", "unit": "log10"}, {"measurement": "β-galactosidase activity expressed by the iagA′-lacZ fusion as % of that in favourable LB medium without the substance", "setting": "[7]; 1 mM in favourable LB medium", "value": "~20", "unit": "%"}, {"measurement": "expression of the iagA gene (iagA′-lacZ fusion)", "setting": "[7]; [8]", "value": "very strongly represses"}]}
